Experimental data published in US11981658B2, “Substituted aminopyridine compounds as EGFR inhibitors” (YUHAN CORPORATION, priority 2021, dated 2024).
Like-named read-outs stand apart in the source and are kept apart here.

Tests used:
EGFR Del19/T790M/C797S = EGFR Del19/T790M/C797S (Homo sapiens, UniProt P00533, C797S/DEL746-750/T790M); experiment: Biochemical EGFR kinase inhibition assay (Lance Ultra TR-FRET), triple mutant del19/T790M/C797S
How it was run: (§1)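 Step 1: compound in kinase buffer, 0.003–10 μM. Step 2: kinase reaction 1 h at room temperature. Step 4: TR-FRET read at 615/665 nm; IC50 calculated.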

EGFR L858R/T790M/C797S = EGFR L858R/T790M/C797S (Homo sapiens, UniProt P00533, C797S/L858R/T790M); experiment: Biochemical EGFR kinase inhibition assay (Lance Ultra TR-FRET), triple mutant L858R/T790M/C797S
Sequence of EGFR L858R/T790M/C797S (P00533 25-1210 T790M/C797S/L858R): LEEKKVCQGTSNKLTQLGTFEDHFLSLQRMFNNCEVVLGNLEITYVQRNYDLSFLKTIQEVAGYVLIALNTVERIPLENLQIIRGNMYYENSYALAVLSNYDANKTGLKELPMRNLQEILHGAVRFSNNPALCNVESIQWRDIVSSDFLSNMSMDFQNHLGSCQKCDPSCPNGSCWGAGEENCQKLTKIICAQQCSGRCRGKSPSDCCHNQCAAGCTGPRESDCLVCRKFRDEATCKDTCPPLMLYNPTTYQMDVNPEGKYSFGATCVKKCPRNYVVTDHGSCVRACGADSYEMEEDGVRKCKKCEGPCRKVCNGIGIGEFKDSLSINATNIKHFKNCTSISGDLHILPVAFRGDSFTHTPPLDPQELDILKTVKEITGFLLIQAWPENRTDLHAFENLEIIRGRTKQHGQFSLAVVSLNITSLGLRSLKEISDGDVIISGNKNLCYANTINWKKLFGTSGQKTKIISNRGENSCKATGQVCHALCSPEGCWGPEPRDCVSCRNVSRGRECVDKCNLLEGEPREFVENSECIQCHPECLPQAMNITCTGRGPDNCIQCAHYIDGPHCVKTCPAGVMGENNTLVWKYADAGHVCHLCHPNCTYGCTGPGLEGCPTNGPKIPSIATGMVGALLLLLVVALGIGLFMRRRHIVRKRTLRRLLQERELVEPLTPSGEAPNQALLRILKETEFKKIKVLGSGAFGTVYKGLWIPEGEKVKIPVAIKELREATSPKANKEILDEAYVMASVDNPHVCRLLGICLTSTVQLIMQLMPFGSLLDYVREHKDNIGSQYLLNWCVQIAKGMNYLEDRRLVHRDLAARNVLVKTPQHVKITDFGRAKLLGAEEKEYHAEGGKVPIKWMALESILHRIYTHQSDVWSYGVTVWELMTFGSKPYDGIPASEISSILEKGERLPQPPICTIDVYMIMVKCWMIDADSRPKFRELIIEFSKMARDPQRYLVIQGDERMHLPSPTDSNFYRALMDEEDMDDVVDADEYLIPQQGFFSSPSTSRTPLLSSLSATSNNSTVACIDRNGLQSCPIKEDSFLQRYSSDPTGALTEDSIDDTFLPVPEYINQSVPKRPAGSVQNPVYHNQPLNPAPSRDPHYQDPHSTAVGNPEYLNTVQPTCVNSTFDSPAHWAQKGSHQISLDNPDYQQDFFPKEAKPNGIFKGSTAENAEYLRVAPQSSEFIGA
How it was run: as §1

EGFR Del19/C797S = EGFR Del19/C797S (Homo sapiens, UniProt P00533, C797S/DEL746-750); experiment: Biochemical EGFR kinase inhibition assay (Lance Ultra TR-FRET), double mutant del19/C797S
Sequence of EGFR Del19/C797S (P00533 with tags, fused parts or gaps DEL746-750/C797S): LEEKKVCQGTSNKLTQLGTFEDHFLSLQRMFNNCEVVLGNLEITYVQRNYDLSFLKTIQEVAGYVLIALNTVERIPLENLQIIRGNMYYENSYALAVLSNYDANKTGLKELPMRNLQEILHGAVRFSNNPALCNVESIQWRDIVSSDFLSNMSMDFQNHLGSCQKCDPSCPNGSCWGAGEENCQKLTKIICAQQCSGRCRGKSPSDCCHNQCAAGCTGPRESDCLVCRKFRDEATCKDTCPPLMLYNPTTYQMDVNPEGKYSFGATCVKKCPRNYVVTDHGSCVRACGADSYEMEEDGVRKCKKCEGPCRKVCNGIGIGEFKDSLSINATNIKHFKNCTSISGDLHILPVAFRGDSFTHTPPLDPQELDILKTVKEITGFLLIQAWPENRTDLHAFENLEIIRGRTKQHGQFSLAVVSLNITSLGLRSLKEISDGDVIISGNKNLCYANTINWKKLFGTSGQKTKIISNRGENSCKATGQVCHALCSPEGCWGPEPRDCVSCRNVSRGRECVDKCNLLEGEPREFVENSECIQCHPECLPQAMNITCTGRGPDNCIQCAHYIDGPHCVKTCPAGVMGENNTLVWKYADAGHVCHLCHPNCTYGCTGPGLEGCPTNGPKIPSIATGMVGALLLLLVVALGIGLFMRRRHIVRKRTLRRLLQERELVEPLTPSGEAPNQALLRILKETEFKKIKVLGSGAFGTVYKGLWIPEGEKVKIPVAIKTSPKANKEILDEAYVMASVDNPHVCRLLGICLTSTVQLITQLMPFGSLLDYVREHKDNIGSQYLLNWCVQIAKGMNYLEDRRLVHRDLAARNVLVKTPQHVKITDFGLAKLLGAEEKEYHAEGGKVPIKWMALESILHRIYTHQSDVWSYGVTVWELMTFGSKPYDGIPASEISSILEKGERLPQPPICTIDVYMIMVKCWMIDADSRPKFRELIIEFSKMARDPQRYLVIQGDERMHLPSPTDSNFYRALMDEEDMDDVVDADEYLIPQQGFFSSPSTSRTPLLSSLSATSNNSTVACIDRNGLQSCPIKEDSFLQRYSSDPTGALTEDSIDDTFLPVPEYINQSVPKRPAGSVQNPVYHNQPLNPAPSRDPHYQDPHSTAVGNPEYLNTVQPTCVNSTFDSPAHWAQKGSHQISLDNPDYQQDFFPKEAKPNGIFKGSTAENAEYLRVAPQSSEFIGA
How it was run: as §1

EGFR L858R/C797S = EGFR L858R/C797S (Homo sapiens, UniProt P00533, C797S/L858R); experiment: Biochemical EGFR kinase inhibition assay (Lance Ultra TR-FRET), double mutant L858R/C797S
Sequence of EGFR L858R/C797S (P00533 25-1210 C797S/L858R): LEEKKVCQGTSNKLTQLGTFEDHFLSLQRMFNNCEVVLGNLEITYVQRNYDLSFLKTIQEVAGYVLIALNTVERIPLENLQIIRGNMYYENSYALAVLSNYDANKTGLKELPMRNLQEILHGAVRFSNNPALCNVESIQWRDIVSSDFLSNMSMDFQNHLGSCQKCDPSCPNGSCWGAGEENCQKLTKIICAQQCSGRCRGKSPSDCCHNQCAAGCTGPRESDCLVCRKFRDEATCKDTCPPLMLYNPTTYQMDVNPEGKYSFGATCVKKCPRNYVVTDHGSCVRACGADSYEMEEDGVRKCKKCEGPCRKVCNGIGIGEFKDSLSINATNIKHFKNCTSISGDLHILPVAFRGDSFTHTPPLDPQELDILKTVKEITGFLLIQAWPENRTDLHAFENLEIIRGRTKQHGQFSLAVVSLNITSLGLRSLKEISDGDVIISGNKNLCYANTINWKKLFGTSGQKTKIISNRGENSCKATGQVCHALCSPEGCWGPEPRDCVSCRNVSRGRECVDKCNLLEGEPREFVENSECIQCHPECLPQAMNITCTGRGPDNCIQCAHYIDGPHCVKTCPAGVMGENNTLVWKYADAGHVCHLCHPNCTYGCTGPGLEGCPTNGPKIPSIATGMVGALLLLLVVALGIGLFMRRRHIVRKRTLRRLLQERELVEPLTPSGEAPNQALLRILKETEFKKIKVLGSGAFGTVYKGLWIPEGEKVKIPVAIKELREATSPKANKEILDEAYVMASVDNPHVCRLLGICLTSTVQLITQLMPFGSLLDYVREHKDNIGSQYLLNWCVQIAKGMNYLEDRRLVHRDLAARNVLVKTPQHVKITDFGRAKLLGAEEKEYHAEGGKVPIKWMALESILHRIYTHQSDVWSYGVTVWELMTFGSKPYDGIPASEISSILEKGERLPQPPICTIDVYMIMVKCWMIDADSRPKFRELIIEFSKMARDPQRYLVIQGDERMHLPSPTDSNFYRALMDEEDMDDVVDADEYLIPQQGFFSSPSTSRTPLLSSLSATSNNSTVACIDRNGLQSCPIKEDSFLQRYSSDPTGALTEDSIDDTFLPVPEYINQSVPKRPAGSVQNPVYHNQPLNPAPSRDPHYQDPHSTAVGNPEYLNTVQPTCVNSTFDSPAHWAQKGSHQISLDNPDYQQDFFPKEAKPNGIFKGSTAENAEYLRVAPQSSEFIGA
How it was run: as §1

EGFR wildtype (WT) = EGFR wildtype (WT) (Homo sapiens, UniProt P00533); experiment: Biochemical EGFR kinase inhibition assay (Lance Ultra TR-FRET), wildtype
How it was run: as §1

[1] = IC50 Del19/T790M/C797S (nM), 100 μM ATP
[2] = IC50 L858R/T790M/C797S (nM), 100 μM ATP
[3] = IC50 Del19/C797S (nM), 100 μM ATP
[4] = IC50 L858R/C797S (nM), 100 μM ATP

Sequence of EGFR Del19/T790M/C797S (P00533 with tags, fused parts or gaps DEL746-750/T790M/C797S): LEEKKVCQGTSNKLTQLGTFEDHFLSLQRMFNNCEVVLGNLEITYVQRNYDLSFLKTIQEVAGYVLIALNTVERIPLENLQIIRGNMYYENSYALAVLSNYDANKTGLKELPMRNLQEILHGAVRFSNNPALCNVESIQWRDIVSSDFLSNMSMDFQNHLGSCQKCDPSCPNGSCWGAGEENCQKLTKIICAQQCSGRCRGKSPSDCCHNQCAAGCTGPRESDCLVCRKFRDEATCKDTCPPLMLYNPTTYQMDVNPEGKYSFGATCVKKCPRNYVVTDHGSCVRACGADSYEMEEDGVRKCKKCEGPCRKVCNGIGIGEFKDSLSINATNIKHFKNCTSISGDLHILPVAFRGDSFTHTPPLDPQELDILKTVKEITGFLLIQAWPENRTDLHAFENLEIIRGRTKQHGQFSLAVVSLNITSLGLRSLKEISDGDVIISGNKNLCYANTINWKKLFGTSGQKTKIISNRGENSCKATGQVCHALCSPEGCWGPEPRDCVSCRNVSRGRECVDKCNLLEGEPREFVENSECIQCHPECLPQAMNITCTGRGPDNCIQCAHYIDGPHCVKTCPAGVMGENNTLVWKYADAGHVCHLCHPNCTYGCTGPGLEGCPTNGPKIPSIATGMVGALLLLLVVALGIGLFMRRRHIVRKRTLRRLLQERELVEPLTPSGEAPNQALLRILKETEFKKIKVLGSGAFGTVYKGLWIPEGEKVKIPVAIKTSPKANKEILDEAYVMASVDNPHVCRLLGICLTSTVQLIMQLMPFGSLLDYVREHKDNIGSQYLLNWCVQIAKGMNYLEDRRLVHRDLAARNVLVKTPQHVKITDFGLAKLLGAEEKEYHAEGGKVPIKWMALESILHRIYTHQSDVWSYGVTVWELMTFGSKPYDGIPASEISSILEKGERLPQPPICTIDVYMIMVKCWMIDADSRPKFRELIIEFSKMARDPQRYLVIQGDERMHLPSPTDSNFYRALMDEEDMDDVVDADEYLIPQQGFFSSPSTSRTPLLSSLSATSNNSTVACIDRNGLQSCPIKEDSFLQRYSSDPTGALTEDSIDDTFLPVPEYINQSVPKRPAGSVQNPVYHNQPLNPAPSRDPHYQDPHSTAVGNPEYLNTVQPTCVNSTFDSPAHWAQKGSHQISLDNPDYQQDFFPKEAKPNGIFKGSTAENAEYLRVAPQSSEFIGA

Row | IC50 (EGFR Del19/T790M/C797S; [1]) [nM] | IC50 (EGFR Del19/T790M/C797S; Km ATP, read-out: IC50 Del19/T790M/C797S (nM) Km ATP) [nM] | IC50 (EGFR L858R/T790M/C797S; [2]) [nM] | IC50 (EGFR L858R/T790M/C797S; Km ATP, read-out: IC50 L858R/T790M/C797S (nM) Km ATP) [nM] | IC50 (EGFR Del19/C797S; [3]) [nM] | IC50 (EGFR Del19/C797S; Km ATP, read-out: IC50 Del19/C797S (nM) Km ATP) [nM] | IC50 (EGFR L858R/C797S; [4]) [nM] | IC50 (EGFR L858R/C797S; Km ATP, read-out: IC50 L858R/C797S (nM) Km ATP) [nM] | IC50 (EGFR wildtype (WT); IC50 WT (nM), 100 μM ATP) [nM] | IC50 (EGFR wildtype (WT); Km ATP, read-out: IC50 WT (nM) Km ATP) [nM] | IC50 (EGFR Del19/T790M/C797S; ATP at Km, read-out: IC50 Del19/T790M/C797S (nM), Km ATP) [nM] | IC50 (EGFR L858R/T790M/C797S; ATP at Km, read-out: IC50 L858R/T790M/C797S (nM), Km ATP) [nM] | IC50 (EGFR Del19/C797S; ATP at Km, read-out: IC50 Del19/C797S (nM), Km ATP) [nM] | IC50 (EGFR L858R/C797S; ATP at Km, read-out: IC50 L858R/C797S (nM), Km ATP) [nM] | IC50 (EGFR wildtype (WT); ATP at Km, read-out: IC50 WT (nM), Km ATP) [nM] | IC50 (EGFR Del19/T790M/C797S; Km ATP, read-out: IC50 Del19/T790M/C797S (nM), Km ATP) [nM] | IC50 (EGFR L858R/T790M/C797S; Km ATP, read-out: IC50 L858R/T790M/C797S (nM), Km ATP) [nM] | Compound
1 | 0.5 | 0.4 | 0.5 | 0.2 | 0.8 | 0.6 | 11.8 | 0.5 | 2780 | 7.8 | – | – | – | – | – | – | – | CN(C)CCCn1cc(C#Cc2cnc(Nc3ccnc(-c4cnn(S(=O)(=O)C5CC5)c4)n3)cc2N2CCCC(CO)C2)cn1 (stereo not drawn) [Example 122, (1-(2-((2-(1-(Cyclopropylsulfonyl)-1H-pyrazol-4-yl)pyrimidin-4-yl)amino)-5-((1-(3-(dimethylamino)propyl)-1H-pyrazol-4-yl)ethynyl)pyridin-4-yl)piperidin-3-yl)methanol]
2 | 1.4 | – | 1.3 | – | 1.1 | – | 5.7 | – | > 10000 | – | 1.2 | 0.4 | 0.8 | 0.9 | 4.4 | – | – | CN(C)C(=O)c1ccc(C#Cc2cnc(Nc3ccnc(-c4cnn(S(=O)(=O)C5CC5)c4)n3)cc2N2CCC(C)(CO)CC2)cc1 [Example 262, 4-((6-((2-(1-(Cyclopropylsulfonyl)-1H-pyrazol-4-yl)pyrimidin-4-yl)amino)-4-(4-(hydroxymethyl)-4-methylpiperidin-1-yl)pyridin-3-yl)ethynyl)-N,N-dimethylbenzamide]
3 | 2.7 | – | 4.7 | – | 78.1 | – | 2090 | – | > 10000 | – | – | – | – | – | – | 1.2 | 1 | CC1OCCC1C#Cc1cnc(Nc2ccnc(-c3cnn(S(=O)(=O)C4CC4)c3)n2)cc1NCC1CCC(O)CC1 (stereo not drawn) [Example 431, (1 r,4r)-4-(((2-((2-(1-(Cyclopropylsulfonyl)-1H-pyrazol-4-yl)pyrimidin-4-yl)amino)-5-((2-methyltetrahydrofuran-3-yl)ethynyl)pyridin-4-yl)amino)methyl)cyclohexan-1-ol]
